Test results taken from patent US4624952A, “Pyridazine and pyrimidine compounds active on the central nervous system as sedatives or anticonvulsants” (Sanofi, priority 1983, dated 1986).
Where a name gives a salt, the structure may show the parent alone. Read-outs that look alike come from different tables or passages of the source.

How the values were obtained:
[1] = test system: spontaneous motility of female Charles River CDl mice; assay: Effect of the products on the spontaneous motility (actimeter test); assay type: in vivo; settings: Mus musculus, po, 0.75 h, 45 min after administration, recorded 10 min, vs controls, * p 0,05, ** p 0,01 (Student test), read-out: Locomotor activity Score (p.cent/controls); for change in vivo at 250 mg/kg: 250 mg/kg p.o.; for change in vivo at 100 mg/kg: 100 mg/kg p.o.
Procedure: The sedative effect is translated by the reduction of the spontaneous motility of the animals. This was measured by the actimeter test developed by BOISSIER and SIMON (1965). The equipment was composed of actimetric cages, of the Apelab type (26×21.5×10 cm), through which pass two light rays which act on a photoelectric cell. The batches were constituted by 12 female Charles River CDl mice weighing between 20 and 24 g. The animals were placed individually in the cages 45 minutes after the oral administration of the products at the dose of 250 mg/kg or at the dose of 100 mg/kg. Each passage through a light beam was counted by an individual meter. The scores corresponding to the movements of the animals were recorded for 10 minutes and compared with the scores made by the batches of control animals, treated solely by the vehicle (0.1N HCl).

[2] = Lethal dose in the mouse after acute administration; settings: in vivo; for mortality at 72 h: po, read-out: % of toxicity (animals which die)
Procedure: The products were administered by the oral route to batches of 5 female Charles River CDl mice, weighing between 20 and 24 g. They were solubilized in 0.1N HCl.
Toxicity was noted during the 72 hours following administration of the products. The LD50 was calculated for two products.
The results expressed in percentage of animals which die in the […] consecutive to the oral administration of the products are noted in the preceding Table.

[3] = test system: convulsions provoked by bicuculline in Charles River CDl mice; assay: Antagonism of the convulsions provoked by bicuculline; assay type: in vivo; settings: mouse; oral, 60 min before bicuculline 0.8 mg/kg i.v.; read-out: Median effective dose (ED50) Antagonism of Bicuculline
Procedure: (§1) The anti-epileptic effect of the products in the mouse was assessed on a model of convulsions provoked by an electric shock, and on a model of convulsions induced by a chemical agent: bicuculline.
The batches were constituted by 10 Charles River CDl mice, weighing between 20 and 22 g. The products were administered by the oral route, 60 minutes before the bicuculline (0.8 mg/kg, i.v.). The appearance of tonic convulsions was noted during the 60 minutes following the injection of the bicuculline.

[4] = test system: convulsions induced by an electric shock in Charles River CDl mice; assay: Antagonism of the convulsions induced by an electric shock; assay type: in vivo; settings: 1 h; mouse; oral, 60 min before electric shock (12.5 volts, 0.3 seconds); read-out: Median effective dose (ED50) Antagonism of the electric shock
Procedure: as §1
The test was slightly modified from that of SWINYARD et al (1952) and ASAMI et al (1974). The equipment was composed of a Racia shock generator provided with two ocular electrodes delivering a current of 12.5 volts for 0.3 seconds. The batches were constituted by 10 Charles River CDl mice, weighing between 20 and 24 g. The products were administered by the oral route, 60 minutes before the electric shock. The animals presenting no tonic extension of the rear limbs were considered as being protected from the convulsive crisis.

[5] = test system: loss of the turn-around reflex in Charles River CDl mice; assay: Potentialization of narcosis by pentobarbital; assay type: in vivo; settings: po; mouse; product 60 min before pentobarbital 20 mg/kg i.p.
Procedure: With a view to assessing the hypnogenic power of the products, we have studied their capacity to potentialize the effects of a subnarcotic dose of pentobarbital in the mouse. The batches were constituted by 10 Charles River CDl mice, weighing between 20 and 24 g. The pentobarbital (20 mg/kg, i.p.) was administered 60 minutes after administration of the products. The criterion of sleep-induction retained was the loss of the turn-around reflex.

[6] = test system: spontaneous motility of female Charles River CDl mice; assay: Effect of the products on the spontaneous motility (actimeter test); assay type: in vivo; settings: Mus musculus, po, 0.75 h; 150 mg/kg p.o.; 45 min after administration, recorded 10 min; vs controls; ** p 0,01 (Student test); read-out: Locomotor activity Score (p.cent/controls)

Structure (SMILES)	change in vivo at 250 mg/kg [1] [%]	mortality at 72 h ([2]; 250 mg/kg p.o.) [%]	mortality at 72 h ([2]; 500 mg/kg p.o.) [%]	mortality at 72 h ([2]; 1000 mg/kg p.o.) [%]	change in vivo at 100 mg/kg [1] [%]	ED50 [3] [mg/kg]	ED50 [4] [mg/kg]	LD50 at 72 h ([2]; oral, calculated, read-out: LD50 (DL50)) [mg/kg]	ED50 [5] [mg/kg]	change in vivo at 150 mg/kg [6] [%]
OC1CCN(c2ncc(Cl)c(-c3ccc(Cl)cc3)n2)CC1 [SR 41556]	-29	0	0	0	–	–	–	–	–	–
OCCN(CCO)c1nccc(-c2ccccc2Cl)n1 [SR 41591]	–	0	0	0	–	–	–	–	–	–
OCC1CCN(c2ccc(-c3ccccc3Cl)nn2)C1 (stereo not drawn) [SR 41259]	–	–	–	–	-19	–	–	–	–	–
OCCN(CCO)c1nccc(-c2ccc(Cl)cc2)n1 [SR 41590]	–	0	0	40	–	–	–	–	–	–
OC1CCN(c2ccc(-c3ccccc3Cl)nn2)CC1 [CM 40907, 3-(4-hydroxy-piperidino)-6-(2-chlorophenyl)pyridazine]	–	–	–	–	-66	38	16	807	96	–
Clc1ccccc1-c1ccc(N2CCC3(CC2)OCCO3)nn1 [SR 42487, 3-[1,4-dioxa-8-aza-spiro[4,5]decane-8-yl]-6-(2-chloro-phenyl)pyridazine]	–	0	0	0	-42	–	57	–	–	–
CCCC(=O)OC1CCN(c2ccc(-c3ccccc3Cl)nn2)CC1 [SR 41172, 3-(4-butyroyloxypiperidino)-6-(2-chlorophenyl)-pyridazine]	–	0	0	100	-32	39	28	–	–	–
OC1CCN(c2ccc(-c3ccccc3Cl)nn2)C1 (stereo not drawn) [SR 41254]	–	0	0	20	-34	–	–	–	–	–
OC1CCN(c2ccc(-c3ccc(Cl)c(Cl)c3)nn2)CC1 [SR 41155]	–	0	100	100	-82	–	–	–	20	–
OC1CCN(c2ccc(-c3cc(Cl)ccc3Cl)nn2)CC1 [SR 41932]	–	0	0	100	–	131	30	–	–	-59
OC1CCN(c2ncc(Cl)c(-c3ccccc3Cl)n2)CC1 [CM 40858, Hydrobromide of 5-chloro-6-(2-chlorophenyl)-2-(4-hydroxy-piperidino)pyrimidine]	-20	0	0	0	–	–	49	–	–	–
O=[N+]([O-])c1ccccc1-c1ccc(N2CCC(O)CC2)nn1 [SR 41673, 3-(4-hydroxy-piperidino)-6-(2-nitrophenyl)-pyridazine]	-61	0	0	20	–	81	27	–	–	–
CNC(=O)OC1CCN(c2ccc(-c3ccccc3Cl)nn2)CC1 [SR 41820, 3-(4-methylcarbamoyloxy-piperidino)-6-(2-chloro-phenyl)pyridazine]	–	–	–	–	–	13	10	–	–	–
O=C(OC1CCN(c2ccc(-c3ccccc3Cl)nn2)CC1)C1CC1 [SR 41174]	–	–	–	–	-15	–	92	–	–	–
OC1CCN(c2nccc(-c3ccc(Cl)cc3)n2)CC1 [SR 41554]	-26	0	0	0	–	147	145	–	66	–
OCCC1CCN(c2ccc(-c3ccccc3Cl)nn2)CC1 [SR 41261]	–	–	–	–	-27	–	–	–	–	–
OC1CCN(c2ccc(-c3ccccc3F)nn2)CC1 [SR 41558]	-93	0	0	80	–	30	115	–	–	–
COc1ccc(-c2ccc(N3CCC(O)CC3)nn2)cc1 [SR 41185]	-78	0	0	0	–	–	–	–	–	–
Oc1ccccc1-c1ccc(N2CCC(O)CC2)nn1 [SR 41559]	-66	0	0	0	–	–	–	–	–	–
OC1CCN(c2ccc(-c3cccc(C(F)(F)F)c3)nn2)CC1 [CM 40857]	–	–	–	–	-87	–	63	–	–	–
OC1CCN(c2ccc(-c3ccc(F)cc3)nn2)CC1 [SR 41184]	–	0	60	100	-91	–	48	–	–	–
OC1CCN(c2ccc(-c3cccc4ccccc34)nn2)CC1 [SR 42399]	–	0	0	–	–	–	38	–	–	–
OC1CCN(c2ccc(-c3ccccc3)nn2)CC1 [SR 41171]	–	0	0	100	-34	83	86	–	–	–
OC1CCN(c2ccc(-c3cccc(Cl)c3)nn2)CC1 [SR 41188]	–	0	0	60	-77	–	45	–	–	–
O=C1CCN(c2ccc(-c3ccccc3Cl)nn2)CC1 [SR 42488, 3-(4-oxo-iperidino)-6-(2-chlorophenyl)pyridazine]	–	0	0	0	–	35	40	–	67	–
OC1CCN(c2ccc(-c3ccc(Cl)cc3)nn2)CC1 [CM 41127]	–	0	0	–	-68	98	28	–	–	–
